{"source": "patent US20120003661A1", "about": "“METHODS AND DEVICES FOR THE SELECTIVE DETECTION OF MICROORGANISMS” (C3 JIAN, INC., priority 2010, published 2012)", "note": "Entries after “also recorded” stand apart in the source; their conditions may differ.", "data": [{"tested_on": "bacteria, fungi, and/or yeasts", "assay_type": "binding", "conditions": "microorganism(s) listed as target(s) of the targeting peptide; wrapped target lists given cell by cell", "values": [{"substance": "1T-249 (VFSVLKHTTWPTRKQSWHDFISILEYSAFFALVIFIFDKLLTLGLAELLKRF)", "Target(s)": "F. nucleatum, S. sanguinis"}, {"substance": "1T-250 (LVQGDTILIENHVGTPVKDDGKDCLIIREADVLAVVND)", "Target(s)": "S. mitis, S. mutans, S. oralis"}, {"substance": "1T-252 (MKKNLKRFYALVLGFIIGCLFVSILIFIGY)", "Target(s)": "F. nucleatum, S. sanguinis"}, {"substance": "1T-253 (KTKESLTQQEKKFLKDYDRKSLHHFRDILTYCFILDKLTNK)", "Target(s)": "A. naeslundii, F. nucleatum, P. gingivalis,; also recorded: S. epidermidis, S. gordonii,; also recorded: S. mitis, S. mutans, S. oralis,; also recorded: S. salivarious, S. sanguinis"}, {"substance": "1T-256 (KGKSLMPLLKQINQWGKLYL)", "Target(s)": "S. sanguinis"}, {"substance": "1T-257 (IILAKAADLAEIERIISEDPFKINEIANYDIIEFCPTKSSKAFEKVLK)", "Target(s)": "A. naeslundii, F. nucleatum, P. gingivalis,; also recorded: S. epidermidis, S. gordonii,; also recorded: S. mitis, S. mutans, S. oralis,; also recorded: S. salivarious, S. sanguinis"}, {"substance": "1T-258 (TINIDDKVLDYLKKINSKAITIDLIGCAS)", "Target(s)": "A. naeslundii, F. nucleatum, P. gingivalis,; also recorded: T. denticola, S. mitis,; also recorded: S. mutans, S. oralis"}, {"substance": "1T-259 (EKLKKILLKLAVCGKAWYTL)", "Target(s)": "F. nucleatum, P. gingivalis, T. denticola,; also recorded: S. mitis, S. mutans, S. oralis,; also recorded: S. sanguinis"}, {"substance": "1T-260 (NILYFIHDENQWEPQKAEIFRGSIKHCAWLSS)", "Target(s)": "A. naeslundii, P. gingivalis, S. epidermidis,; also recorded: S. gordonii, S. mitis,; also recorded: S. mutans, S. oralis, S. sanguinis"}, {"substance": "1T-261 (SFEKNKIENNLKIAQAYIYIKPKPRICQA)", "Target(s)": "F. nucleatum, S. mutans, S. oralis,; also recorded: S. sanguinis"}, {"substance": "1T-262 (LSLPLIVLTKSI)", "Target(s)": "A. naeslundii, F. nucleatum, P. gingivalis,; also recorded: S. epidermidis, S. gordonii,; also recorded: S. mitis, S. mutans, S. oralis,; also recorded: S. salivarious, S. sanguinis"}, {"substance": "1T-263 (FIAVSFTGNPATFKLVIGCKADN)", "Target(s)": "A. naeslundii, F. nucleatum, P. gingivalis,; also recorded: S. epidermidis, S. gordonii,; also recorded: S. mitis, S. oralis, S. salivarious,; also recorded: S. sanguinis"}, {"substance": "1T-264 (LEGKFYMAEDFDKTPECFKDYV)", "Target(s)": "S. sanguinis"}, {"substance": "1T-265 (GMFENLLMINFQIMNDLKIEIVVKDRICAV)", "Target(s)": "A. naeslundii, F. nucleatum, P. gingivalis,; also recorded: S. epidermidis, S. gordonii,; also recorded: S. mitis, S. mutans, S. oralis,; also recorded: S. salivarious, S. sanguinis"}, {"substance": "1T-266 (RAGTWLVVDEIR)", "Target(s)": "S. sanguinis"}, {"substance": "1T-267 (RIKEERKNRSYKFFIWRLFDEKTGFI)", "Target(s)": "A. naeslundii, F. nucleatum, P. gingivalis,; also recorded: T. denticola, S. mitis,; also recorded: S. mutans, S. oralis, S. sanguinis"}]}, {"tested_on": "bacteria, fungi, and/or yeasts", "assay_type": "binding", "conditions": "microorganism(s) the targeting peptide binds, as listed in Table 2", "values": [{"substance": "1T-178 (LLASHPERLSLGVFFVYRVLHLLLENT)", "Target(s)": "A. naeslundii, F. nucleatum, P. gingivalis,; also recorded: S. epidermidis, S. gordonii,; also recorded: S. mitis, S. mutans, S. oralis,; also recorded: S. salivarious, S. sanguinis"}, {"substance": "1T-179 (TCYPLIQRKTDRAYEA)", "Target(s)": "A. naeslundii, F. nucleatum, P. gingivalis,; also recorded: T. denticola, S. gordonii,; also recorded: S. mitis, S. mutans, S. oralis,; also recorded: S. salivarious, S. sanguinis"}, {"substance": "1T-180 (VVFGGGDRLV)", "Target(s)": "A. naeslundii, F. nucleatum, P. gingivalis,; also recorded: T. denticola, S. gordonii,; also recorded: S. mitis, S. mutans, S. oralis,; also recorded: S. salivarious, S. sanguinis"}, {"substance": "1T-181 (YGKESDP)", "Target(s)": "A. naeslundii, F. nucleatum, P. gingivalis,; also recorded: T. denticola, S. gordonii,; also recorded: S. mitis, S. mutans, S. oralis,; also recorded: S. salivarious, S. sanguinis"}, {"substance": "1T-182 (LTASICRQWNDNSTPYQR)", "Target(s)": "A. naeslundii, F. nucleatum, P. gingivalis,; also recorded: T. denticola, S. gordonii,; also recorded: S. mitis, S. mutans, S. oralis,; also recorded: S. salivarious, S. sanguinis"}, {"substance": "1T-183 (PLRSFVAEKAEHAFRVVRIADFDFGHS)", "Target(s)": "A. naeslundii, F. nucleatum, P. gingivalis,; also recorded: S. epidermidis, S. gordonii,; also recorded: S. mitis, S. mutans, S. oralis,; also recorded: S. salivarious, S. sanguinis"}, {"substance": "1T-184 (ALLVLNLLLMQFFFGKNM)", "Target(s)": "A. naeslundii, F. nucleatum, P. gingivalis,; also recorded: T. denticola, S. gordonii,; also recorded: S. mitis, S. mutans, S. oralis,; also recorded: S. salivarious, S. sanguinis"}, {"substance": "1T-185 (HYHFLLEFGFHKGDYLE)", "Target(s)": "A. naeslundii, F. nucleatum, P. gingivalis,; also recorded: T. denticola, S. gordonii,; also recorded: S. mitis, S. mutans, S. oralis,; also recorded: S. salivarious, S. sanguinis"}, {"substance": "1T-188 (HRKDVYKK)", "Target(s)": "S. sanguinis"}, {"substance": "1T-190 (IQIIVNAFVEKDKTGAVIEVLYASNNHEKVKAKYEELVAIS)", "Target(s)": "A. naeslundii, F. nucleatum, P. gingivalis,; also recorded: S. epidermidis, S. gordonii,; also recorded: S. mitis, S. mutans, S. oralis,; also recorded: S. salivarious, S. sanguinis"}, {"substance": "1T-192 (ILVLLALQVELDSKFQY)", "Target(s)": "S. sanguinis"}, {"substance": "1T-193 (LMIFDKHANLKYKYGNRSFGVEAIM)", "Target(s)": "S. sanguinis"}, {"substance": "1T-195 (AASGFTYCASNGVWHPY)", "Target(s)": "S. mutans"}, {"substance": "1T-196 (KPEKEKLDTNTLMKVVNKALSLFDRLLIKFGA)", "Target(s)": "F. nucleatum, S. sanguinis"}, {"substance": "1T-197 (TEILNFLITVCADRENWKIKHGLSDSVLLIFFARFTGAEYW)", "Target(s)": "A. naeslundii, F. nucleatum, P. gingivalis,; also recorded: S. epidermidis, S. gordonii,; also recorded: S. mitis, S. mutans, S. oralis,; also recorded: S. salivarious, S. sanguinis"}, {"substance": "1T-198 (MPVSKKRYMLSSAYATALGICYGQVATDEKESEITAIPDLLDYLSVEEYLL)", "Target(s)": "P. gingivalis, S. epidermidis, S. gordonii,; also recorded: S. mitis, S. mutans, S. oralis,; also recorded: S. sanguinis"}, {"substance": "1T-199 (RAGRIKKLSQKEAEPFEN)", "Target(s)": "S. sanguinis"}, {"substance": "1T-200 (MRFKRFDRDYALSGDNVFEVLTASCDVIERNLSYREMCGLMQ)", "Target(s)": "A. naeslundii, F. nucleatum, S. epidermidis,; also recorded: S. gordonii, S. mitis,; also recorded: S. mutans, S. oralis, S. salivarious,; also recorded: S. sanguinis"}, {"substance": "1T-201 (KRKHENVIVAEEMRVIKN)", "Target(s)": "S. sanguinis"}, {"substance": "1T-202 (LCRLEKLCKQFLRQDKVVTYYLMLPYKRAIEAFYQELKERS)", "Target(s)": "A. naeslundii, F. nucleatum, P. gingivalis,; also recorded: S. epidermidis, S. gordonii,; also recorded: S. mitis, S. mutans, S. oralis,; also recorded: S. salivarious, S. sanguinis"}, {"substance": "1T-203 (YPFCLATVDHLPEGLSVTDYERVQRLVSQFLLNKEER)", "Target(s)": "A. naeslundii, F. nucleatum, P. gingivalis,; also recorded: S. epidermidis, S. gordonii,; also recorded: S. mitis, S. mutans, S. oralis,; also recorded: S. salivarious, S. sanguinis"}, {"substance": "1T-207 (SPLEKYGTGSMTALTFLLGCCLLVLSKKSR)", "Target(s)": "F. nucleatum, S. sanguinis"}, {"substance": "1T-215 (VCFKDISVFLSPFRGQEVLFCGKAKHSLIYVIGT)", "Target(s)": "S. sanguinis"}, {"substance": "1T-216 (FFLNVIAIRIPHF)", "Target(s)": "S. sanguinis"}, {"substance": "1T-217 (MLSNVLSRSVVSPNVDIPNSMVILSPLLISISNYH)", "Target(s)": "F. nucleatum, S. sanguinis"}, {"substance": "1T-218 (KLIFAALGLVFLLIGLRDSRSK)", "Target(s)": "F. nucleatum, S. sanguinis"}, {"substance": "1T-219 (RNINVSATFITEKSLV)", "Target(s)": "S. sanguinis"}, {"substance": "1T-221 (DIGRIIGKKGRTITAIRSIVYSVPTQGKKVRLVIDEK)", "Target(s)": "A. naeslundii, F. nucleatum, P. gingivalis,; also recorded: S. epidermidis, S. gordonii,; also recorded: S. mitis, S. mutans, S. oralis,; also recorded: S. salivarious, S. sanguinis"}, {"substance": "1T-222 (RIEASLISAIMFSMFNAIVKFLQK)", "Target(s)": "F. nucleatum, S. sanguinis"}, {"substance": "1T-223 (NQKMEINSMTSEKEKMLAGHFHNEANFAVIFKYSLFYNFF)", "Target(s)": "A. naeslundii, F. nucleatum, P. gingivalis,; also recorded: S. epidermidis, S. gordonii,; also recorded: S. mitis, S. mutans, S. oralis,; also recorded: S. salivarious, S. sanguinis"}, {"substance": "1T-225 (RRSLGNSASFAEWIEYIRYLHYIIRVQFIHFFSKNKKI)", "Target(s)": "A. naeslundii, F. nucleatum, P. gingivalis,; also recorded: S. epidermidis, S. gordonii,; also recorded: S. mitis, S. mutans, S. oralis,; also recorded: S. salivarious, S. sanguinis"}, {"substance": "1T-226 (KLQEKQIDRNFERVSGYSTYRAVQAAKAKEKGFISLEN)", "Target(s)": "A. naeslundii, F. nucleatum, S. epidermidis,; also recorded: S. gordonii, S. mitis,; also recorded: S. mutans, S. oralis, S. salivarious,; also recorded: S. sanguinis"}, {"substance": "1T-228 (IFKLFEEHLLYLLDAFYYSKIFRRLKQGLYRRKEQPYTQDLFRM)", "Target(s)": "A. naeslundii, F. nucleatum, P. gingivalis,; also recorded: S. epidermidis, S. gordonii,; also recorded: S. mitis, S. mutans, S. oralis,; also recorded: S. salivarious, S. sanguinis"}, {"substance": "1T-230 (EFLEKFKVLKQPRKANNISKNRVAMIFLTIHKSRGFLSSPY)", "Target(s)": "A. naeslundii, F. nucleatum, P. gingivalis,; also recorded: S. epidermidis, S. gordonii,; also recorded: S. mitis, S. mutans, S. oralis,; also recorded: S. salivarious, S. sanguinis"}, {"substance": "1T-233 (TDQELEHLIVTELESKRLDFTYSKDITEFFDEAFPEYDQNY)", "Target(s)": "A. naeslundii, P. gingivalis, S. epidermidis,; also recorded: S. gordonii, S. mitis,; also recorded: S. mutans, S. oralis, S. salivarious,; also recorded: S. sanguinis"}, {"substance": "1T-234 (DNFYLILKMEERGKSKKTSQTRGFRAFFDIIRKKIKKEDGK)", "Target(s)": "A. naeslundii, F. nucleatum, P. gingivalis,; also recorded: S. epidermidis, S. gordonii,; also recorded: S. mitis, S. mutans, S. oralis,; also recorded: S. salivarious, S. sanguinis"}, {"substance": "1T-237 (EDPVPNHFTLRRNKKEKPSKS)", "Target(s)": "S. sanguinis"}, {"substance": "1T-238 (IFNRRKFFQYFGLSKEAMVEHIQPFILDIWQIHLF)", "Target(s)": "A. naeslundii, F. nucleatum, P. gingivalis,; also recorded: S. epidermidis, S. gordonii,; also recorded: S. mitis, S. mutans, S. oralis,; also recorded: S. salivarious, S. sanguinis"}, {"substance": "1T-239 (ADDLLNKRLTDLIMENAETVKTIDLDNSD)", "Target(s)": "A. naeslundii, S. gordonii, S. mitis,; also recorded: S. mutans, S. oralis, S. sanguinis"}, {"substance": "1T-240 (VILGNGISNIAQTLGQLPNIAWVWIYMVLIAALLEESNVC)", "Target(s)": "A. naeslundii, F. nucleatum, P. gingivalis,; also recorded: S. epidermidis, S. gordonii,; also recorded: S. mitis, S. mutans, S. oralis,; also recorded: S. salivarious, S. sanguinis"}, {"substance": "1T-242 (KQVQNTTLIICGTVLLGILFKSYLKSQKSV)", "Target(s)": "F. nucleatum, S. sanguinis"}, {"substance": "1T-243 (SENIARFAAAFENEQVVSYARWFRRSWRGSGSSSRF)", "Target(s)": "A. naeslundii, P. gingivalis, S. epidermidis,; also recorded: S. gordonii, S. mitis,; also recorded: S. mutans, S. oralis, S. salivarious,; also recorded: S. sanguinis"}, {"substance": "1T-248 (IGGALNSCG)", "Target(s)": "S. sanguinis"}]}]}
